Laboratory results reported in patent publication US6818644B1, “Substituted piperazine derivatives, the preparation thereof and their use as medicaments” (Boehringer Ingelheim Pharm GmbH & Co, KG, priority 1999, dated 2004).

Structure (SMILES) | melting point [°C]
O=C(NCC(F)(F)F)C1(CCCCN2CCN(c3ccc(Cl)c(Cl)c3)CC2)c2ccccc2-c2ccccc21 [Example 12, 9-{4-[4-(3,4-dichlorophenyl)-piperazin-1-yl]-butyl}-9H-fluorene-9-carboxylic acid-(2,2,2-trifluoroethyl)-amide] | 122
O=C(NCC(F)(F)F)C1(CCCCN2CCN(c3ccc(F)cc3)CC2)c2ccccc2-c2ccccc21 [Example 9, 9-{4-[4-(4-Fluorophenyl)-piperazin-1-yl]-butyl}-9H-fluorene-9-carboxylic acid-(2,2,2-trifluoroethyl)-amide] | 116 to 117
COc1ccc(N2CCN(CCCCC3(C(=O)NCC(F)(F)F)c4ccccc4-c4ccccc43)CC2)cc1 [Example 13, 9-{4-[4-(4-methoxy-phenyl)-piperazin-1-yl]-butyl}-9H-fluorene-9-carboxylic acid-(2,2,2-trifluoroethyl)-amide] | 120
O=C(NCC(F)(F)F)C1(CCCCN2CCN(c3ccc([N+](=O)[O-])cc3)CC2)c2ccccc2-c2ccccc21 [Example 17, 9-{4-[4-(4-nitro-phenyl)-piperazin-1-yl]-butyl}-9H-fluorene-9-carboxylic acid-(2,2,2-trifluoroethyl)-amide] | 146
Cl.Nc1ccc(N2CCN(CCCCC3(C(=O)NCC(F)(F)F)c4ccccc4-c4ccccc43)CC2)cc1 | > 270
O=C(NCC(F)(F)F)C1(CCCCN2CCN(c3cccc(Cl)c3)CC2)c2ccccc2-c2ccccc21 [Example 5, 9-{4-[4-(3-Chloro-phenyl)-piperazin-1-yl]-butyl}-9H-fluorene-9-carboxylic acid-(2,2,2-trifluoroethyl)-amide] | 122
O=C(NCC(F)(F)F)C1(CCCCN2CCN(c3ccc(OCc4ccccc4)cc3)CC2)c2ccccc2-c2ccccc21 [Example 6, 9-{4-[4-(4-Benzyloxy-phenyl)-piperazin-1-yl]-butyl}-9H-fluorene-9-carboxylic acid-(2,2,2-trifluoroethyl)-amide] | 180
O=C(NCC(F)(F)F)C1(CCCCN2CCN(c3ccc(-c4ccccc4)cc3)CC2)c2ccccc2-c2ccccc21 [Example 3, 9-[4-(4-biphenyl-4-yl-piperazin-1-yl)-butyl]-9H-fluorene-9-carboxylic acid-(2,2,2-trifluoroethyl)-amide] | 209 to 211
O=C(NCC(F)(F)F)C1(CCCCN2CCN(c3ccc(Cl)c(C(F)(F)F)c3)CC2)c2ccccc2-c2ccccc21 [Example 10, 9-{4-[4-(4-Chloro-3-trifluoromethyl-phenyl)-piperazin-1-yl]-butyl}-9H-fluorene-9-carboxylic acid-(2,2,2-trifluoroethyl)-amide] | 96
O=C(NCC(F)(F)F)C1(CCCCN2CCN(c3ccc(Cl)cc3)CC2)c2ccccc2-c2ccccc21 [Example 4, 9-{4-[4-(4-Chloro-phenyl)-piperazin-1-yl]-butyl}-9H-fluorene-9-carboxylic acid-(2,2,2-trifluoroethyl)-amide] | 166
O=C(NCC(F)(F)F)C1(CCCCN2CCN(c3ccc(C(F)(F)F)cc3)CC2)c2ccccc2-c2ccccc21 [Example 7, 9-{4-[4-(4-Trifluoromethyl-phenyl)-piperazin-1-yl]-butyl}-9H-fluorene-9-carboxylic acid-(2,2,2-trifluoroethyl)-amide] | 176

The remaining lines, values ahead:

melting point [°C] | Structure (SMILES)
59 | O=C(NCC(F)(F)F)C1(CCCCN2CCN(c3cc(-c4ccccc4)ccn3)CC2)c2ccccc2-c2ccccc21 [Example 29, 9-{4-[4-(4-phenyl-pyridin-2-yl)-piperazin-1-yl]-butyl}-9H-fluorene-9-carboxylic acid-(2,2,2-trifluoroethyl)-amide]
122 | COc1cccc(N2CC(C)N(CCCCC3(C(=O)NCC(F)(F)F)c4ccccc4-c4ccccc43)C(C)C2)n1 (centres unmarked) [Example 36, 9-{4-[4-(6-methoxy-pyridin-2-yl)-2,6-dimethyl-piperazin-1-yl]-butyl}-9H-fluorene-9-carboxylic acid-(2,2,2-trifluoroethyl)-amide]
123 | O=C(NCC(F)(F)F)C1(CCCCN2CCN(c3ccccn3)CC2)c2ccccc2-c2ccccc21 [Example 20, 9-{4-[4-Pyridin-2-yl-piperazin-1-yl]-butyl}-9H-fluorene-9-carboxylic acid-(2,2,2-trifluoroethyl)-amide]
85 to 87 | Cc1cccc(N2CCN(CCCCC3(C(=O)NCC(F)(F)F)c4ccccc4-c4ccccc43)CC2)n1 [Example 25, 9-{4-[4-(6-methyl-pyridin-2-yl)-piperazin-1-yl]-butyl}-9H-fluorene-9-carboxylic acid-(2,2,2-trifluoroethyl)-amide]
63 | O=C(NCC(F)(F)F)C1(CCCCN2CCN(c3cccc(-c4ccccc4)n3)CC2)c2ccccc2-c2ccccc21 [Example 28, 9-{4-[4-(6-phenyl-pyridin-2-yl)-piperazin-1-yl]-butyl}-9H-fluorene-9-carboxylic acid-(2,2,2-trifluoroethyl)-amide]
122 | COc1cccc(N2CCN(CCCCC3(C(=O)NCC(F)(F)F)c4ccccc4Oc4ccccc43)CC2)n1 [Example 35, 9-{4-[4-(6-methoxy-pyridin-2-yl)-piperazin-1-yl]-butyl}-9H-xanthene-9-carboxylic acid-(2,2,2-trifluoroethyl)-amide]
78 to 79 | COc1cccc(N2CC(C)N(CCCCC3(C(=O)NCc4ccc(F)cc4)c4ccccc4-c4ccccc43)C(C)C2)n1 (centres unmarked) [Example 37, 9-{4-[4-(6-methoxy-pyridin-2-yl)-2,6-dimethyl-piperazin-1-yl]-butyl}-9H-fluorene-9-carboxylic acid-4-fluorobenzyl-amide]
147 to 149 | O=C(NCC(F)(F)F)C1(CCCCN2CCN(c3ccc(C(F)(F)F)cn3)CC2)c2ccccc2-c2ccccc21 [Example 27, 9-{4-[4-(5-trifluoromethyl-pyridin-2-yl)-piperazin-1-yl]-butyl}-9H-fluorene-9-carboxylic acid-(2,2,2-trifluoroethyl)-amide]
96 to 97 | Cc1cccc(N2CCN(CCCCC3(C(=O)NCc4ccc(F)cc4)c4ccccc4-c4ccccc43)CC2)n1 [Example 26, 9-{4-[4-(6-methyl-pyridin-2-yl)-piperazin-1-yl]-butyl}-9H-fluorene-9-carboxylic acid-4-fluorobenzyl-amide]
